Measurements taken from the supplement of paper PMC10307832.

Tests used:
Test in all cases: relative viability (nuclei count vs DMSO), 5 days (fraction); higher = more cells survive
ABC-1 = test system: ABC-1
Summary of the method: (§1)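 Lung cancer cell lines, seeded in 1536-well plates, were treated the following day by pin tool with a single drug or with five library-drug doses (not always all listed) in √10 steps on top of a fixed anchor-drug dose. Cells were fixed and nuclei stained in one step after 5 days, and nuclei were counted. Relative viability is the nuclei count for treated wells divided by that for vehicle wells, reported as medians of duplicate plates.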

COR-L23 = test system: COR-L23
Summary of the method: as §1

EPLC-272H = test system: EPLC-272H
Summary of the method: as §1

HARA = test system: HARA
Summary of the method: as §1

HCC-15 = test system: HCC-15
Summary of the method: as §1

HCC-78 = test system: HCC-78
Summary of the method: as §1

LC-2-ad = test system: LC-2-ad
Summary of the method: as §1

LU99A = test system: LU99A
Summary of the method: as §1

NCI-H1651 = test system: NCI-H1651
Summary of the method: as §1

NCI-H1915 = test system: NCI-H1915
Summary of the method: as §1

NCI-H1993 = test system: NCI-H1993
Summary of the method: as §1

NCI-H2009 = test system: NCI-H2009
Summary of the method: as §1

NCI-H2085 = test system: NCI-H2085
Summary of the method: as §1

NCI-H2126 = test system: NCI-H2126
Summary of the method: as §1

NCI-H2347 = test system: NCI-H2347
Summary of the method: as §1

NCI-H460 = test system: NCI-H460
Summary of the method: as §1

NCI-H650 = test system: NCI-H650
Summary of the method: as §1

NCI-H838 = test system: NCI-H838
Summary of the method: as §1

PC-14 = test system: PC-14
Summary of the method: as §1

SW 1573 = test system: SW 1573
Summary of the method: as §1

UMC-11 = test system: UMC-11
Summary of the method: as §1

C[C@@H]1CN(CC(=O)Nc2ccc3c(c2)Cc2cccc(-c4cc(=O)cc(N5CCOCC5)o4)c2S3)C[C@H](C)O1 + CC(C)C[C@H](NC(=O)[C@H](Cc1ccccc1)NC(=O)c1cnccn1)B(O)O [Bortezomib] (partner 0.002 µM)
relative viability (ABC-1; first compound 0.1265 µM): 0.3
relative viability (ABC-1; first compound 0.4 µM): 0.304
relative viability (ABC-1; first compound 4 µM): 0.265
relative viability (COR-L23; first compound 0.04 µM): 0.975
relative viability (COR-L23; first compound 0.1265 µM): 0.996
relative viability (COR-L23; first compound 0.4 µM): 0.984
relative viability (COR-L23; first compound 4 µM): 0.795
relative viability (EPLC-272H; first compound 0.04 µM): 0.925
relative viability (EPLC-272H; first compound 0.1265 µM): 0.894
relative viability (EPLC-272H; first compound 0.4 µM): 1.03
relative viability (EPLC-272H; first compound 4 µM): 0.993
relative viability (HARA; first compound 0.04 µM): 1.14
relative viability (HARA; first compound 0.1265 µM): 1.15
relative viability (HARA; first compound 0.4 µM): 1.09
relative viability (HARA; first compound 4 µM): 1.05
relative viability (HCC-15; first compound 0.04 µM): 1
relative viability (HCC-15; first compound 0.1265 µM): 0.948
relative viability (HCC-15; first compound 0.4 µM): 1.03
relative viability (HCC-15; first compound 4 µM): 0.836
relative viability (HCC-78; first compound 0.04 µM): 0.404
relative viability (HCC-78; first compound 0.1265 µM): 0.484
relative viability (HCC-78; first compound 0.4 µM): 0.431
relative viability (HCC-78; first compound 4 µM): 0.432
relative viability (LC-2-ad; first compound 0.04 µM): 1.09
relative viability (LC-2-ad; first compound 0.1265 µM): 0.981
relative viability (LC-2-ad; first compound 0.4 µM): 0.936
relative viability (LC-2-ad; first compound 4 µM): 0.847
relative viability (LU99A; first compound 0.04 µM): 1.11
relative viability (LU99A; first compound 0.1265 µM): 1.15
relative viability (LU99A; first compound 0.4 µM): 1.11
relative viability (LU99A; first compound 4 µM): 1.1
relative viability (NCI-H1651; first compound 0.04 µM): 0.848
relative viability (NCI-H1651; first compound 0.1265 µM): 0.866
relative viability (NCI-H1651; first compound 0.4 µM): 0.922
relative viability (NCI-H1651; first compound 4 µM): 0.976
relative viability (NCI-H1915; first compound 0.04 µM): 0.905
relative viability (NCI-H1915; first compound 0.1265 µM): 0.964
relative viability (NCI-H1915; first compound 0.4 µM): 1.03
relative viability (NCI-H1915; first compound 4 µM): 0.73
relative viability (NCI-H1993; first compound 0.04 µM): 1.12
relative viability (NCI-H1993; first compound 0.1265 µM): 1.08
relative viability (NCI-H1993; first compound 0.4 µM): 0.763
relative viability (NCI-H1993; first compound 4 µM): 1.01
relative viability (NCI-H2009; first compound 0.04 µM): 0.982
relative viability (NCI-H2009; first compound 0.1265 µM): 1.01
relative viability (NCI-H2009; first compound 0.4 µM): 0.933
relative viability (NCI-H2009; first compound 4 µM): 0.714
relative viability (NCI-H2085; first compound 0.04 µM): 0.999
relative viability (NCI-H2085; first compound 0.1265 µM): 1.04
relative viability (NCI-H2085; first compound 0.4 µM): 0.975
relative viability (NCI-H2085; first compound 4 µM): 0.805
relative viability (NCI-H2126; first compound 0.04 µM): 1.13
relative viability (NCI-H2126; first compound 0.1265 µM): 1.12
relative viability (NCI-H2126; first compound 0.4 µM): 1.17
relative viability (NCI-H2126; first compound 4 µM): 1.06
relative viability (NCI-H2347; first compound 0.04 µM): 0.923
relative viability (NCI-H2347; first compound 0.1265 µM): 1.03
relative viability (NCI-H2347; first compound 0.4 µM): 1.2
relative viability (NCI-H2347; first compound 4 µM): 0.958
relative viability (NCI-H460; first compound 0.04 µM): 1.13
relative viability (NCI-H460; first compound 0.1265 µM): 1.05
relative viability (NCI-H460; first compound 0.4 µM): 1.24
relative viability (NCI-H460; first compound 4 µM): 0.759
relative viability (NCI-H650; first compound 0.04 µM): 0.742
relative viability (NCI-H650; first compound 0.1265 µM): 0.801
relative viability (NCI-H650; first compound 0.4 µM): 0.761
relative viability (NCI-H650; first compound 4 µM): 0.552
relative viability (NCI-H838; first compound 0.04 µM): 0.715
relative viability (NCI-H838; first compound 0.1265 µM): 0.689
relative viability (NCI-H838; first compound 0.4 µM): 0.865
relative viability (NCI-H838; first compound 4 µM): 0.643
relative viability (PC-14; first compound 0.04 µM): 0.993
relative viability (PC-14; first compound 0.1265 µM): 0.859
relative viability (PC-14; first compound 0.4 µM): 0.798
relative viability (PC-14; first compound 4 µM): 0.664
relative viability (SW 1573; first compound 0.04 µM): 1.17
relative viability (SW 1573; first compound 0.1265 µM): 1.15
relative viability (SW 1573; first compound 0.4 µM): 0.926
relative viability (SW 1573; first compound 4 µM): 0.976
relative viability (UMC-11; first compound 0.04 µM): 0.778
relative viability (UMC-11; first compound 0.1265 µM): 0.693
relative viability (UMC-11; first compound 0.4 µM): 0.919
relative viability (UMC-11; first compound 4 µM): 0.543
